Source: patent US12599560B2, “Lipids and lipid nanoparticle formulations” (Longuide Biopharma Corporation, priority 2023, dated 2026)

Tests used:
[1] = Particle size and PDI by dynamic light scattering; assay type: physicochemical
Method: The 7.5 μL nucleic acid lipid nanoparticle solution (containing approximately 0.04 mg/mL mRNA) was taken and added with 200 μL ultrapure water, mixed by gentle blowing using a pipette tip, and the particle size of the nanopreparation was detected by dynamic lightscattering (DLS) using a Malvern Dynamic Light Scattering Instrument (Malvern Instruments Ltd., ZEN3700, UK). 27.5 μL nucleic acid lipid nanoparticle solution (containing about 0.04 mg/mL mRNA) was taken and added with 200 μL ultrapure water. A pipette tip was used to gently blow the sample and mix well. The particle size of the nanopreparation was detected by Malvern Dynamic Light Scattering Instrument (Malvern Instruments Ltd., ZEN3700, UK). After the detection, the sample was recovered to an EP tube, and 600 μL of ultrapure water was added, gently blown with a pipette tip, and the potential of the nanopreparation was measured by a Malvern particle size meter.

[2] = system: mice; assay: In vivo delivery of FLuc-mRNA lipid nanoparticle preparations in mice (IVIS imaging); set-up: In vivo IVIS / In vivo IVIS (liver) / In vivo IVIS (spleen): unit not given here; conditions: for in vivo delivery efficiency as compared to the benchmark compound SM102: certain formulations
Method: 7. In Vivo Delivery of the Nucleic Acid Lipid Nanoparticle Preparations in Mice After the preparation was completed, the preparation was injected intramuscularly (mice rectus femoris muscle of the thigh) or intravenously (mice tail vein), with approximately 75 μL per mouse, for a total of 3 mice. After a certain time of injection, in vivo imaging (PerkinElmer, IVIS Lumina III) was performed. 10-15 minutes before imaging, 200 μL of 15 mg/mL D-Luciferin working solution was injected intraperitoneally, and the imaging analysis was performed using an in vivo imager.

[3] = Table 4, molar ratio 1.40:11.15:38.95:48.50, N/P 32, IV formulation
[4] = Table 4, molar ratio 2.00:4.00:59.00:35.00, N/P 35, IM formulation
[5] = Table 2, LNP formulation with mRNA
[6] = Table 2, IV, whole body scan, molar ratio DMG-PEG2000:DSPC:Chol:Lipid and N/P
[7] = Table 4, molar ratio 1.40:11.15:38.95:48.50, N/P 40, IM formulation
[8] = Table 4, molar ratio 1.50:16.00:34.00:48.50, N/P 55, IV formulation

SMILES	In vivo IVIS ([2]; Table 4, IM)	In vivo IVIS ([2]; Table 4, IV)	PDI ([1]; Table 4)	Particle size (nm) ([1]; Table 4)	other results
CCCCCCC(CCCCCC)C(=O)OCCCCCCOC(=O)C(O)CN(CCCN1CCN(CCCN(CC(O)C(=O)OCCCCCCOC(=O)C(CCCCCC)CCCCCC)CC(O)C(=O)OCCCCCCOC(=O)C(CCCCCC)CCCCCC)CC1)CC(O)C(=O)OCCCCCCOC(=O)C(CCCCCC)CCCCCC (centres unmarked) [Compound L0227]	3.49 × 10^8	2.49 × 10^8			PDI [1, 3]: 0.15 ± 0.01; Particle size (nm) [1, 3]: 113.50 ± 0.96 nm; PDI [1, 4]: 0.13 ± 0.01; Particle size (nm) [1, 4]: 112.03 ± 0.65 nm
CCCCCCCCCCOC(=O)C(O)CN(CCCN1CCN(CCCN(CC(O)C(=O)OCCCCCCCCCC)CC(O)C(=O)OCCCCCCCCCC)CC1)CC(O)C(=O)OCCCCCCCCCC (centres unmarked) [Compound L0209]	7.33 × 10^8	1.52 × 10^10			Particle size (nm) ([1]; Table 4, molar ratio 1.00:6.00:44.50:48.50, N/P 40, IV formulation): 99.95 ± 0.74 nm; Particle size (nm) ([1]; Table 4, molar ratio 1.50:6.00:57.50:35.00, N/P 48, IM formulation): 84.17 ± 0.31 nm
CC/C=C\CCOCOCCCCCCOC(=O)C(O)CN(CCN1CCN(CCN(CC(O)C(=O)OCCCCCCOCOCC/C=C\CC)CC(O)C(=O)OCCCCCCOCOCC/C=C\CC)CC1)CCN(CC(O)C(=O)OCCCCCCOCOCC/C=C\CC)CC(O)C(=O)OCCCCCCOCOCC/C=C\CC (centres unmarked) [Compound L0201]					Particle size (nm) [1, 5]: 119.70 ± 0.61 nm; PDI ([1]; Table 2, polydispersity value): 0.07 ± 0.01; In vivo IVIS ([2]; Table 2, IM, whole body scan): 2.18 × 10^6; In vivo IVIS (liver) ([2]; Table 2, IV): 5.29 × 10^8; In vivo IVIS (spleen) ([2]; Table 2, IV): 7.89 × 10^7; In vivo IVIS [2, 6]: 4.46 × 10^6; in vivo delivery efficiency as compared to the benchmark compound SM102 ([2]; Table 2): superior in vivo delivery efficiency
CC/C=C\CCOCOCCCCCCOC(=O)C(O)CN1CCN(CCN(CC(O)C(=O)OCCCCCCOCOCC/C=C\CC)CC(O)C(=O)OCCCCCCOCOCC/C=C\CC)CC1 (centres unmarked) [Compound L0221]	1.85 × 10^5	3.94 × 10^5	0.07 ± 0.02	140.97 ± 1.48	
CCCCCCCC/C=C\CCCCCCCCNC(=O)C(O)CN1CCN(CCN(CC(O)C(=O)NCCCCCCCC/C=C\CCCCCCCC)CC(O)C(=O)NCCCCCCCC/C=C\CCCCCCCC)CC1 (centres unmarked) [Compound L0223]	1.83 × 10^6	1.42 × 10^8	0.13 ± 0.03	98.88 ± 1.32	
CCCCCCCCCCCCOC(=O)CCN(CCC(=O)OCCCCCCCCCCCC)CCN(CCC(=O)OCCCCCCCCCCCC)CCN1CCN(CCN(CCC(=O)OCCCCCCCCCCCC)CCC(=O)OCCCCCCCCCCCC)CC1 [L0199-Control, reference compound]	5.84 × 10^6	2.12 × 10^7			PDI [1, 7]: 0.17 ± 0.02; Particle size (nm) [1, 7]: 133.43 ± 1.86 nm; PDI [1, 8]: 0.16 ± 0.03; Particle size (nm) [1, 8]: 144.33 ± 0.31 nm; delivery efficiency, times lower than the hydroxy compound (L0191 or L0199) ([2]; IM administration): slightly lower; delivery efficiency, times lower than the hydroxy compound (L0191 or L0199) ([2]; IV administration): about 44 times
CCCCCCCCCCNC(=O)C(O)CN(CC(O)C(=O)NCCCCCCCCCC)[C@H]1CC[C@@H](N(CC(O)C(=O)NCCCCCCCCCC)CC(O)C(=O)NCCCCCCCCCC)CC1 (some centres unmarked) [Compound L0216]	3.58 × 10^5	2.18 × 10^5	0.08 ± 0.02	117.97 ± 1.91	
CCCCCCCCCCNC(=O)C(O)CN[C@H]1CC[C@H](N(CC(O)C(=O)NCCCCCCCCCC)CC(O)C(=O)NCCCCCCCCCC)CC1 (some centres unmarked) [Compound L0219]	2.79 × 10^6	8.48 × 10^7	0.09 ± 0.01	102.47 ± 0.96	
CCCCCCCCCCCCNC(=O)C(O)CN(Cc1ccc(CN(CC(O)C(=O)NCCCCCCCCCCCC)CC(O)C(=O)NCCCCCCCCCCCC)cc1)CC(O)C(=O)NCCCCCCCCCCCC (centres unmarked) [Compound L0208]	1.94 × 10^6	2.27 × 10^5	0.14 ± 0.03	176.67 ± 1.97	
CCCCCCOC(C)OCCCCCCOC(=O)C(O)CN1CCN(CCN(CC(O)C(=O)OCCCCCCOC(C)OCCCCCC)CC(O)C(=O)OCCCCCCOC(C)OCCCCCC)CC1 (centres unmarked) [Compound L0220]	1.32 × 10^6	1.82 × 10^8	0.08 ± 0.02	106.97 ± 0.21	
CCCCCCOCOCCCCCCOC(=O)C(O)CN1CCN(CCN(CC(O)C(=O)OCCCCCCOCOCCCCCC)CC(O)C(=O)OCCCCCCOCOCCCCCC)CC1 (centres unmarked) [Compound L0184]					Particle size (nm) ([1]; Table 2, LNP formulation with mRNA, molar ratio 1.09:8.66:30.25:60.00, N/P 50): 128.20 ± 0.95 nm; Particle size (nm) ([1]; Table 2, LNP formulation with mRNA, molar ratio 1.40:11.15:38.95:48.50, N/P 50): 119.60 ± 0.40 nm; PDI ([1]; Table 2, polydispersity value, molar ratio 1.09:8.66:30.25:60.00, N/P 50): 0.09 ± 0.01; PDI ([1]; Table 2, polydispersity value, molar ratio 1.40:11.15:38.95:48.50, N/P 50): 0.06 ± 0.00; In vivo IVIS ([2]; Table 2, IM, whole body scan): 4.88 × 10^6; In vivo IVIS [2, 6]: 1.17 × 10^8
CCCCCCCCCCCCNC(=O)C(O)CN(CC(O)C(=O)NCCCCCCCCCCCC)[C@H]1CC[C@H](N(CC(O)C(=O)NCCCCCCCCCCCC)CC(O)C(=O)NCCCCCCCCCCCC)CC1 (some centres unmarked) [Compound L0214]	2.46 × 10^5	3.60 × 10^5	0.21 ± 0.01	177.07 ± 1.00	
CCCCCCCCCCCCOC(=O)C(O)CN(Cc1ccc(CN(CC(O)C(=O)OCCCCCCCCCCCC)CC(O)C(=O)OCCCCCCCCCCCC)cc1)CC(O)C(=O)OCCCCCCCCCCCC (centres unmarked) [Compound L0207]	1.75 × 10^5	2.41 × 10^5	0.19 ± 0.00	172.13 ± 1.53	
CCCCCCCCCCCCNC(=O)C(O)CN(CC(O)C(=O)NCCCCCCCCCCCC)[C@H]1CC[C@@H](N(CC(O)C(=O)NCCCCCCCCCCCC)CC(O)C(=O)NCCCCCCCCCCCC)CC1 (some centres unmarked) [Compound L0213]	2.36 × 10^5	3.64 × 10^5	0.18 ± 0.01	174.43 ± 1.85	
CCCCCCCCCCOC(=O)C(O)CN(CCN1CCN(CCN(CC(O)C(=O)OCCCCCCCCCC)CC(O)C(=O)OCCCCCCCCCC)CC1)CCN(CC(O)C(=O)OCCCCCCCCCC)CC(O)C(=O)OCCCCCCCCCC (centres unmarked) [Compound L0210]	2.48 × 10^7	6.93 × 10^9	0.15 ± 0.01		Particle size (nm) ([1]; Table 4, molar ratio 1.00:16.00:48.00:35.00, N/P 30, IV formulation): 101.83 ± 0.21 nm; Particle size (nm) [1, 7]: 94.89 ± 0.78 nm
CCCCCCC(CCCCCC)C(=O)OCCCCOC(=O)C(O)CN(CCCN1CCN(CCCN(CC(O)C(=O)OCCCCOC(=O)C(CCCCCC)CCCCCC)CC(O)C(=O)OCCCCOC(=O)C(CCCCCC)CCCCCC)CC1)CC(O)C(=O)OCCCCOC(=O)C(CCCCCC)CCCCCC (centres unmarked) [Compound L0196]					Particle size (nm) [1, 5]: 89.18 ± 0.22 nm; PDI ([1]; Table 2, polydispersity value): 0.11 ± 0.01; In vivo IVIS ([2]; Table 2, IM, whole body scan): 1.82 × 10^8; In vivo IVIS [2, 6]: 2.00 × 10^9; in vivo delivery efficiency as compared to the benchmark compound SM102 ([2]; Table 2): superior in vivo delivery efficiency
CCCCCCCCCCCCNC(=O)C(O)CN(CCCC(=O)NCCCN1CCN(CCCNC(=O)CCCN(CC(O)C(=O)NCCCCCCCCCCCC)CC(O)C(=O)NCCCCCCCCCCCC)CC1)CC(O)C(=O)NCCCCCCCCCCCC (centres unmarked) [Compound L0195]					Particle size (nm) [1, 5]: 90.79 ± 0.65 nm; PDI ([1]; Table 2, polydispersity value): 0.17 ± 0.02; In vivo IVIS ([2]; Table 2, IM, whole body scan): 6.81 × 10^5; In vivo IVIS [2, 6]: 4.54 × 10^5
CCCCCCCCC(CCCCCC)C(=O)OCCCCCCOC(=O)C(O)CN1CCN(CCN(CC(O)C(=O)OCCCCCCOC(=O)C(CCCCCC)CCCCCCCC)CC(O)C(=O)OCCCCCCOC(=O)C(CCCCCC)CCCCCCCC)CC1 (centres unmarked) [Compound L0188]					Particle size (nm) [1, 5]: 97.72 ± 1.19 nm; PDI ([1]; Table 2, polydispersity value): 0.22 ± 0.02; In vivo IVIS ([2]; Table 2, IM, whole body scan): 1.87 × 10^7; In vivo IVIS (liver) ([2]; Table 2, IV): 4.17 × 10^7; In vivo IVIS (spleen) ([2]; Table 2, IV): 4.65 × 10^7; In vivo IVIS [2, 6]: 1.61 × 10^8
CCCCCCCCCCNC(=O)C(O)CN[C@H]1CC[C@@H](N(CC(O)C(=O)NCCCCCCCCCC)CC(O)C(=O)NCCCCCCCCCC)CC1 (some centres unmarked) [Compound L0217]	2.97 × 10^6	2.87 × 10^7	0.09 ± 0.02	87.05 ± 0.47	
CCCCCCCCCCCCOC(=O)CCN(CCCN1CCN(CCCN(CCC(=O)OCCCCCCCCCCCC)CCC(=O)OCCCCCCCCCCCC)CC1)CCC(=O)OCCCCCCCCCCCC [L0191-Control, reference compound]	1.07 × 10^6	2.30 × 10^6			delivery efficiency, times lower than the hydroxy compound (L0191 or L0199) ([2]; IM administration): ~20 times; delivery efficiency, times lower than the hydroxy compound (L0191 or L0199) ([2]; IV administration): about 420 times
